Publication PMC7413254 (Nature Communications, 2020)
Like-named read-outs stand apart in the source and are kept apart here.

Experiments:
[1] = target: T1, PfCRT^3D7 (Plasmodium falciparum, UniProt Q8IBZ9); test: cell-based; format: cell-based
Summary of the method: (§1)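 Oocytes (ten per treatment, ≥4 independent frogs/days) were preloaded by injecting VF-6 in 25 nL ND96 at pH 5.0, 5.5, 6.0 or 7.0, or Na^+-free choline buffer, then uptake run 1.5 h, 27.5 °C, ND96 pH 5.5 by default. Internal concentrations assumed ~400 nL oocyte volume.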

[2] = target: T2, PfCRT^Ecu1110 (Plasmodium falciparum, UniProt Q9N623, A220S/I356L/K76T/N326D); test: cell-based; format: cell-based; conditions: […]
Summary of the method: as §1

[3] = target: T3, PfNT1 (Plasmodium falciparum, UniProt Q8IDM6); test: cell-based; format: cell-based; conditions: for activity at 5000 µM: total [3H]CQ transport
T3 construct: expressed in transfected cells; host or cells: Xenopus laevis oocytes (stage V-VI), cRNA-injected
Summary of the method: as §1

[4] = target: T4, PfCRT^Dd2 (Plasmodium falciparum, UniProt Q9N623, A220S/I356T/K76T/M74I/N326S/N75E/Q271E/R371I); test: cell-based; format: cell-based; conditions: […]; for activity at 45000 µM: [test solute]i = 45 mM (30 mM for some solutes due to solubility)
Summary of the method: as §1

[5] = target: T1, PfCRT^3D7; test: cell-based; format: cell-based; conditions: total [3H]CQ transport; for inhibition at 500 µM: [test solute] = 0.5 mM; for inhibition at 1000 µM: [test solute] = 1 mM; for inhibition at 2000 µM: [test solute] = 2 mM
Summary of the method: (§2)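 Using pH 5.5 ND96 at 27.5 °C, uptake is followed for 1.5 h, stopped with ice-cold buffer, and quantified as accumulated radioactivity per oocyte after SDS lysis.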

[6] = test system: PfCRT; test: Influx of VF-6 via PfCRT into the oocyte, solutes tested as potential co-substrates; format: cell-based, Plasmodium falciparum; parameters: key: X: Compounds that have been tested as potential co-substrates but are not required for influx of VF-6 via PfCRT into the oocyte; conditions: X marks the solute
[7] = test system: non-expressing oocytes; test: cells; format: cell-based, Xenopus laevis; conditions: Xenopus laevis, total [3H]CQ transport; for inhibition at 500 µM: [test solute] = 0.5 mM; for inhibition at 1000 µM: [test solute] = 1 mM; for inhibition at 2000 µM: [test solute] = 2 mM
Summary of the method: as §2

[8] = test system: non-expressing oocytes; format: cell-based, Xenopus laevis; conditions: total [3H]CQ transport; for Uptake of [3H]CQ (% non-expressing oocyte control), trans-stimulation: non-expressing oocytes, normalised to the oocyte type control; for Uptake of [3H]CQ (% PfCRTDd2 control), trans-stimulation, non-expressing oocytes: mean ± SEM, SEM
Summary of the method: as §1

[9] = target: T2, PfCRT^Ecu1110; test: [3H]CQ uptake into Xenopus oocytes, cis-inhibition by unlabelled solute; format: cell-based
Summary of the method: as §2

[10] = target: T4, PfCRT^Dd2; test: as above; format: cell-based
Summary of the method: as §2

[11] = test system: PfCRT; test: Potential co-substrates tested for influx of VF-6 via PfCRT into the oocyte; format: cell-based, Plasmodium falciparum; parameters: key: X: Compounds that have been tested as potential co-substrates but are not required for influx of VF-6 via PfCRT into the oocyte
[12] = PfCRT3D7 oocytes, normalised to the oocyte type control, read-out: Uptake of [3H]CQ (% PfCRT3D7 control), cis-inhibition
[13] = mean ± SEM, SEM, read-out: Uptake of [3H]CQ (% PfCRTDd2 control), cis-inhibition, PfCRT3D7
[14] = Oocyte, mean ± SEM, SEM, read-out: Uptake of [3H]CQ (% PfCRTDd2 control), cis-inhibition, non-expressing oocytes
[15] = non-expressing oocytes, normalised to the oocyte type control, read-out: Uptake of [3H]CQ (% non-expressing oocyte control), cis-inhibition
[16] = read-out: PfCRT-mediated [3H]CQ transport, cis-inhibition (% PfCRTEcu1110 control)
[17] = read-out: Uptake of [3H]CQ (% PfCRTDd2 control), cis-inhibition, PfCRTEcu1110, SEM
[18] = read-out: Uptake of [3H]CQ (% PfCRTEcu1110 control), cis-inhibition
[19] = read-out: [3H]CQ transport (% PfCRTEcu1110 control), cis-inhibition, PfCRTEcu1110, SEM
[20] = read-out: PfCRT-mediated [3H]CQ transport, cis-inhibition (% PfCRTDd2 control)
[21] = read-out: Uptake of [3H]CQ (% PfCRTDd2 control), cis-inhibition, PfCRTDd2, SEM

T1 sequence (Q8IBZ9 59-398): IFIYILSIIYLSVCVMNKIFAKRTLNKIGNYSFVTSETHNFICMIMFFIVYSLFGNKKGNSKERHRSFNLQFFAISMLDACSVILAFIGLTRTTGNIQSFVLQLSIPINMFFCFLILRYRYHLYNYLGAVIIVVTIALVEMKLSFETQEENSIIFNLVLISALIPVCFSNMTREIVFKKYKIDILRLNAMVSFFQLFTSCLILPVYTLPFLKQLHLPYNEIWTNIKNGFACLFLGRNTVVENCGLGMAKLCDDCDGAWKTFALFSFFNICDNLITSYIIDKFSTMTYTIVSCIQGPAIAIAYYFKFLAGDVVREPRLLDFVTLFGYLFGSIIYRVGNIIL
T4 sequence (Q9N623 whole entry A220S/I356T/K76T/M74I/N326S/N75E/Q271E/R371I): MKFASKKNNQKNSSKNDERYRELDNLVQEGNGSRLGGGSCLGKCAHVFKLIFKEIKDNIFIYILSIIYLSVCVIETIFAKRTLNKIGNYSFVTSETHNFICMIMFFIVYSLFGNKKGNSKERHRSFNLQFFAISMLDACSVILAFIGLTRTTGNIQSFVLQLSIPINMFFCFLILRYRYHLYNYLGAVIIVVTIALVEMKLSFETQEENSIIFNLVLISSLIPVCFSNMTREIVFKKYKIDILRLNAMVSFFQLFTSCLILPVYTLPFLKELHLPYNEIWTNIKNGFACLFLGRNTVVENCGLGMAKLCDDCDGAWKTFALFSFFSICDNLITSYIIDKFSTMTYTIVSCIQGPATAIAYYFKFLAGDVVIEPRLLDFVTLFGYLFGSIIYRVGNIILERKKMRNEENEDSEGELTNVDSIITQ
T3 sequence (Q8IDM6 whole entry): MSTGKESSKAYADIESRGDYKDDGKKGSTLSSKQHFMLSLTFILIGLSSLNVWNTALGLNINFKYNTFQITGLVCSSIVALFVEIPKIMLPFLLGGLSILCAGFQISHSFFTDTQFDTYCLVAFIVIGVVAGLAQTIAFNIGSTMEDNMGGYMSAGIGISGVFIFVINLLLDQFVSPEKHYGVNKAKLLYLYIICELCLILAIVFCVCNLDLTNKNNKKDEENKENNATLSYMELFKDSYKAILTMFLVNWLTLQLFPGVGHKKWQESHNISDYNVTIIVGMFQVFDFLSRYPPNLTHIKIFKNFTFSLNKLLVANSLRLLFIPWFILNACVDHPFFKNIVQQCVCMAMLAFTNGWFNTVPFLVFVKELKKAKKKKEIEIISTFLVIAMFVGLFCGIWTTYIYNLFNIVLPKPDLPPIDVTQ
T2 sequence (Q9N623 whole entry A220S/I356L/K76T/N326D): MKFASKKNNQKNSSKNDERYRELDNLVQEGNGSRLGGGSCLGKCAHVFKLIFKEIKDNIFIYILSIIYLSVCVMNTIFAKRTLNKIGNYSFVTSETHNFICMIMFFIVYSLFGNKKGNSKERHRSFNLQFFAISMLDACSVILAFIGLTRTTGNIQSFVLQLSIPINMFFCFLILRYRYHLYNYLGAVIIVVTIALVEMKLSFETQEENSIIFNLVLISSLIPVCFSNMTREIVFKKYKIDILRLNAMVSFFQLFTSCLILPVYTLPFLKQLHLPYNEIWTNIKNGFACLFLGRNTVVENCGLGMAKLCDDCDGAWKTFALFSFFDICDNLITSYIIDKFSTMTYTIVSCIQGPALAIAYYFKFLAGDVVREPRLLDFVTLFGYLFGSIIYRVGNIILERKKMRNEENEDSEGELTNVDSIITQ

With `C[C@H](N)C(=O)O` [L-alanine] the activity at 5000 µM ([1]; PfCRT3D7 oocytes, [test solute]i = 5 mM, total [3H]CQ transport, normalised to the oocyte type control, read-out: Uptake of [3H]CQ (% PfCRT3D7 control), trans-stimulation) was 99 ± 3.6%, the “[3H]CQ transport (% PfCRT3D7 control), trans-stimulation, PfCRT3D7” value ([1]; SEM) was 0.3 ± 0.01 % PfCRT3D7 control and the activity at 5000 µM ([1]; [test solute]i = 5 mM (intracellular), PfCRT3D7 oocytes, normalised to oocyte type control, read-out: PfCRT-mediated [3H]CQ transport, trans-stimulation (% PfCRT3D7 control)) was 97 ± 2.1%. For the same compound, the activity at 45000 µM ([1]; SEM, read-out: Uptake of [3H]CQ (% PfCRTDd2 control), trans-stimulation, PfCRT3D7) was 3.3 ± 0.05%, the activity at 45000 µM ([1]; read-out: PfCRT-mediated [3H]CQ transport, trans-stimulation (% PfCRT3D7 control)) was 97 ± 2.3% and the activity at 45000 µM ([1]; read-out: Uptake of [3H]CQ (% PfCRT3D7 control), trans-stimulation) was 99 ± 3.2%. It also gave an activity at 5000 µM ([1]; total [3H]CQ transport, [test solute]i = 5 mM (intracellular), mean ± SEM, SEM, read-out: Uptake of [3H]CQ (% PfCRTDd2 control), trans-stimulation, PfCRT3D7) of 3.3 ± 0.05%, an activity at 5000 µM ([2]; pH 5.5, read-out: PfCRT-mediated [3H]CQ transport, trans-stimulation (% PfCRTEcu1110 control), [test solute]i = 5 mM (intracellular), PfCRTEcu1110 oocytes, normalised to oocyte type control) of 97 ± 1.4% and an activity at 5000 µM ([2]; pH 5.5, read-out: Uptake of [3H]CQ (% PfCRTEcu1110 control), trans-stimulation, PfCRTEcu1110 oocytes, [test solute]i = 5 mM, total [3H]CQ transport, normalised to the oocyte type control) of 99 ± 3.2%. The activity at 45000 µM ([2]; pH 5.5, read-out: Uptake of [3H]CQ (% PfCRTEcu1110 control), trans-stimulation, PfCRTEcu1110 oocytes, [test solute]i = 45 mM (30 mM for some solutes due to solubility), total [3H]CQ transport, normalised to the oocyte type control) was 101 ± 2.1%, the activity at 5000 µM ([2]; read-out: Uptake of [3H]CQ (% PfCRTDd2 control), trans-stimulation, PfCRTEcu1110, total [3H]CQ transport, [test solute]i = 5 mM (intracellular), mean ± SEM, SEM) was 35 ± 2.6% and the activity at 45000 µM ([2]; read-out: Uptake of [3H]CQ (% PfCRTDd2 control), trans-stimulation, PfCRTEcu1110, total [3H]CQ transport, [test solute]i = 45 mM (intracellular; 30 mM for some solutes due to solubility), mean ± SEM, SEM) was 36 ± 1.5%. It also gave an activity at 5000 µM ([3]; PfNT1 oocytes, [test solute]i = 5 mM, normalised to the oocyte type control, read-out: Uptake of [3H]CQ (% PfNT1 control), trans-stimulation) of 99 ± 3.1%, an activity at 45000 µM ([3]; SEM, read-out: Uptake of [3H]CQ (% PfCRTDd2 control), trans-stimulation, PfNT1) of 3.2 ± 0.02% and an activity at 45000 µM ([3]; read-out: Uptake of [3H]CQ (% PfNT1 control), trans-stimulation) of 99 ± 3.6%. The activity at 5000 µM ([3]; [test solute]i = 5 mM (intracellular), mean ± SEM, SEM, read-out: Uptake of [3H]CQ (% PfCRTDd2 control), trans-stimulation, PfNT1) was 2.2 ± 0.03%, the activity at 5000 µM ([4]; pH 5.5, read-out: PfCRT-mediated [3H]CQ transport, trans-stimulation (% PfCRTDd2 control), [test solute]i = 5 mM (intracellular), PfCRTDd2 oocytes, normalised to oocyte type control) was 95 ± 1.9% and the activity at 5000 µM ([4]; pH 5.5, read-out: Uptake of [3H]CQ (% PfCRTDd2 control), trans-stimulation, PfCRTDd2, total [3H]CQ transport, [test solute]i = 5 mM (intracellular), mean ± SEM, SEM) was 97 ± 3.3%. It also gave an activity at 5000 µM ([4]; pH 5.5, read-out: Uptake of [3H]CQ (% PfCRTDd2 control), trans-stimulation, PfCRTDd2 oocytes, [test solute]i = 5 mM, total [3H]CQ transport, normalised to the oocyte type control) of 97 ± 3.3%, an activity at 45000 µM ([4]; pH 5.5, read-out: Uptake of [3H]CQ (% PfCRTDd2 control), trans-stimulation, PfCRTDd2 oocytes, total [3H]CQ transport, normalised to the oocyte type control) of 98 ± 1.9% and an activity at 5000 µM ([4]; pH 5.5, read-out: [3H]CQ transport (% PfCRTDd2 control), trans-stimulation, PfCRTDd2, trans-stimulation, [test solute]i = 5 mM (injected), PfCRT-mediated component (background subtracted), mean ± SEM, SEM) of 95 ± 1.9%. It also gave an activity at 45000 µM ([4]; pH 5.5, read-out: [3H]CQ transport (% PfCRTDd2 control), trans-stimulation, PfCRTDd2, trans-stimulation, PfCRT-mediated component (background subtracted), mean ± SEM, SEM) of 96 ± 3.2%, an inhibition at 500 µM [5, 12] of 99 ± 3.2% and an inhibition at 1000 µM [5, 12] of 100 ± 3.6%. It also gave an inhibition at 2000 µM [5, 12] of 99 ± 4.6%, an inhibition at 500 µM [5, 13] of 4.2 ± 0.03% and an inhibition at 1000 µM [5, 13] of 3.1 ± 0.07%. The inhibition at 2000 µM [5, 13] was 3.2 ± 0.08%, the “Compounds that have been tested as potential co-substrates but are not required for influx of VF-6 via PfCRT into the oocyte” value [6] was “X” and the inhibition at 500 µM [7, 14] was 3.5 ± 0.08%. The inhibition at 1000 µM [7, 14] was 3.7 ± 0.08%, the inhibition at 2000 µM [7, 14] was 2.2 ± 0.06% and the inhibition at 500 µM [7, 15] was 99 ± 5.3%. The inhibition at 1000 µM [7, 15] was 100 ± 3.5%, the inhibition at 2000 µM [7, 15] was 99 ± 1.4% and the “Uptake of [3H]CQ (% non-expressing oocyte control), trans-stimulation” value ([8]; [test solute]i = 5 mM) was 99 ± 3.2 % non-expressing oocyte control. The “Uptake of [3H]CQ (% non-expressing oocyte control), trans-stimulation” value ([8]; [test solute]i = 45 mM (30 mM for some solutes due to solubility)) was 99 ± 2.2 % non-expressing oocyte control, the “Uptake of [3H]CQ (% PfCRTDd2 control), trans-stimulation, non-expressing oocytes” value ([8]; [test solute]i = 5 mM (intracellular)) was 3.1 ± 0.03 % PfCRTDd2 control and the “Uptake of [3H]CQ (% PfCRTDd2 control), trans-stimulation, non-expressing oocytes” value ([8]; [test solute]i = 45 mM (intracellular; 30 mM for some solutes due to solubility)) was 3.3 ± 0.08 % PfCRTDd2 control. For the same compound, the inhibition at 500 µM [9, 16] was 93 ± 1.3%, the inhibition at 1000 µM [9, 16] was 95 ± 1.7% and the inhibition at 500 µM [9, 17] was 31 ± 2.5%. For the same compound, the inhibition at 1000 µM [9, 17] was 32 ± 2.1%, the inhibition at 2000 µM [9, 17] was 32 ± 0.9% and the inhibition at 500 µM [9, 18] was 96 ± 2.5%. The inhibition at 1000 µM [9, 18] was 97 ± 2.5%, the inhibition at 2000 µM [9, 18] was 98 ± 4.1% and the inhibition at 500 µM [9, 19] was 28 ± 0.6%. The inhibition at 1000 µM [9, 19] was 29 ± 1.1%, the inhibition at 2000 µM [9, 19] was 29 ± 1.5% and the inhibition at 500 µM [10, 20] was 95 ± 2.1%. For the same compound, the inhibition at 1000 µM [10, 20] was 94 ± 3.8%, the inhibition at 500 µM [10, 21] was 97 ± 4.6% and the inhibition at 1000 µM [10, 21] was 96 ± 3.3%. The inhibition at 2000 µM [10, 21] was 98 ± 3.1% and the “Tested as potential co-substrate but not required for influx of VF-6 via PfCRT into the oocyte” value [11] was “X”.
